Columns and labels:
[1] = target: Tyrosine-protein kinase FRK (Homo sapiens) (UniProt P42685); test: Selectivity interaction (KinomeScan (DiscoverX)) EUB0001049a FRK; conditions: at 1 µM
[2] = target: T1, Interleukin-1 receptor-associated kinase 3 (Homo sapiens) (UniProt Q9Y616); test: Selectivity interaction (KinomeScan (DiscoverX)) EUB0001049a IRAK3; conditions: at 1 µM
T1 sequence (whole entry): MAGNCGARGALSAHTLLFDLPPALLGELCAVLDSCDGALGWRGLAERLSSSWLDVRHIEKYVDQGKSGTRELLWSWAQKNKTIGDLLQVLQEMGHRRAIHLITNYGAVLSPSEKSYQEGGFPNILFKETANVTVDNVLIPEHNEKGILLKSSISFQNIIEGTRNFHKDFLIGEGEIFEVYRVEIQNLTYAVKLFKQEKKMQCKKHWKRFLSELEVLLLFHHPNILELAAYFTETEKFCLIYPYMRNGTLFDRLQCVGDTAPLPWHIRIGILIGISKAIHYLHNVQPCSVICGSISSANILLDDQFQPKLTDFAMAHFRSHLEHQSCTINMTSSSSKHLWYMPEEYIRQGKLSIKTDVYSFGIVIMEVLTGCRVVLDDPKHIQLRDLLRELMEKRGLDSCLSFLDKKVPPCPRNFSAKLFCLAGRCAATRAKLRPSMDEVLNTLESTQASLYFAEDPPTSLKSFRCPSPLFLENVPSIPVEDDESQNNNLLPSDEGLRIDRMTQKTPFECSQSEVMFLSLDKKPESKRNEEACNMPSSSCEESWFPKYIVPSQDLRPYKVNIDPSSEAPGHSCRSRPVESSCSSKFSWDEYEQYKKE

[3] = target: Fibroblast growth factor receptor 3 (Homo sapiens, UniProt P22607); test: Selectivity interaction (Kinase panel (Invitrogen)) EUB0000639a FGFR3; conditions: at 200 nM
Fibroblast growth factor receptor 3, sequence (P22607 23-806 limits assumed): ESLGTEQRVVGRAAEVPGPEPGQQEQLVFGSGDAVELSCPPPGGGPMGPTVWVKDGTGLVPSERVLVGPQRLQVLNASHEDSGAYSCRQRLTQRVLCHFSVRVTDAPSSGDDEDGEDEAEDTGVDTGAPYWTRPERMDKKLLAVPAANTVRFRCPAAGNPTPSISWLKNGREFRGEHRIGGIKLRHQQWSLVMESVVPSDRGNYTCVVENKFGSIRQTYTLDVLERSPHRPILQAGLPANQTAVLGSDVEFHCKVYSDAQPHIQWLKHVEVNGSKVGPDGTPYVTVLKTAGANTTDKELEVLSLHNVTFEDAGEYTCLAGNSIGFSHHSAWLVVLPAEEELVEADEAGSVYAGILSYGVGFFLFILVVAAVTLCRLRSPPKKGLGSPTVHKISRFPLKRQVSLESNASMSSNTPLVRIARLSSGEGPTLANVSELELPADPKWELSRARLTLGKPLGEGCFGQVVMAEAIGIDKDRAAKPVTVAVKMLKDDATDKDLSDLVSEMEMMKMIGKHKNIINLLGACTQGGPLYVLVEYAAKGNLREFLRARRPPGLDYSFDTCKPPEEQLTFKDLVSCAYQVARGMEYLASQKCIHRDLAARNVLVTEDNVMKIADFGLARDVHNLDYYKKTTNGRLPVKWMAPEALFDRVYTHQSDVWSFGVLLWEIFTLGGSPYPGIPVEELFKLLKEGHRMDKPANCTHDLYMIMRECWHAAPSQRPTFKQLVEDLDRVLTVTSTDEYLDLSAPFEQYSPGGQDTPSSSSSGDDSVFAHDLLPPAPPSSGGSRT

[4] = target: MAP/microtubule affinity-regulating kinase 3 (Homo sapiens) (UniProt P27448); test: Selectivity interaction (KinomeScan (DiscoverX)) EUB0000092b MARK3; conditions: at 10 µM
MAP/microtubule affinity-regulating kinase 3 (Homo sapiens), sequence (P27448 whole entry, looked up): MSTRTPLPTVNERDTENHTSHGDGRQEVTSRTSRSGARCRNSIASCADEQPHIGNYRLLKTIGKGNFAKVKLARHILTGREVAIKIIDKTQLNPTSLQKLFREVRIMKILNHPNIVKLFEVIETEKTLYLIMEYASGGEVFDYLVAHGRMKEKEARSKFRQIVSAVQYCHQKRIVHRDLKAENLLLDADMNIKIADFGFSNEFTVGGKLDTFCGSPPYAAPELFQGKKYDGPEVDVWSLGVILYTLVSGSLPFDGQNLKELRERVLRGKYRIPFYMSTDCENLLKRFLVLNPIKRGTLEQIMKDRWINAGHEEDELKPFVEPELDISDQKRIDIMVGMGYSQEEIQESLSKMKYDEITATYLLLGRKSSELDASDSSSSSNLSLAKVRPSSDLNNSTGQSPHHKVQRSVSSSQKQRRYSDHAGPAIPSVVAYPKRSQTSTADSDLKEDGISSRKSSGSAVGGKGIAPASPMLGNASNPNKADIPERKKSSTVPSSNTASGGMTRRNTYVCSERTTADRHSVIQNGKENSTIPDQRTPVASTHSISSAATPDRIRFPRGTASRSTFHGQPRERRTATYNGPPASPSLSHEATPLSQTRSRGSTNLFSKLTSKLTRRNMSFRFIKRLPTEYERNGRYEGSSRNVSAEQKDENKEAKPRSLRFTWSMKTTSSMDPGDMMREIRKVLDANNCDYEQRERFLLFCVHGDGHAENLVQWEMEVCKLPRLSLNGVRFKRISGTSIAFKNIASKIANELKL

[5] = target: T2, Cyclin-G-associated kinase (Homo sapiens) (UniProt O14976); test: Selectivity interaction (KinomeScan (DiscoverX)) EUB0001619a GAK; conditions: at 1 µM
T2 sequence (whole entry): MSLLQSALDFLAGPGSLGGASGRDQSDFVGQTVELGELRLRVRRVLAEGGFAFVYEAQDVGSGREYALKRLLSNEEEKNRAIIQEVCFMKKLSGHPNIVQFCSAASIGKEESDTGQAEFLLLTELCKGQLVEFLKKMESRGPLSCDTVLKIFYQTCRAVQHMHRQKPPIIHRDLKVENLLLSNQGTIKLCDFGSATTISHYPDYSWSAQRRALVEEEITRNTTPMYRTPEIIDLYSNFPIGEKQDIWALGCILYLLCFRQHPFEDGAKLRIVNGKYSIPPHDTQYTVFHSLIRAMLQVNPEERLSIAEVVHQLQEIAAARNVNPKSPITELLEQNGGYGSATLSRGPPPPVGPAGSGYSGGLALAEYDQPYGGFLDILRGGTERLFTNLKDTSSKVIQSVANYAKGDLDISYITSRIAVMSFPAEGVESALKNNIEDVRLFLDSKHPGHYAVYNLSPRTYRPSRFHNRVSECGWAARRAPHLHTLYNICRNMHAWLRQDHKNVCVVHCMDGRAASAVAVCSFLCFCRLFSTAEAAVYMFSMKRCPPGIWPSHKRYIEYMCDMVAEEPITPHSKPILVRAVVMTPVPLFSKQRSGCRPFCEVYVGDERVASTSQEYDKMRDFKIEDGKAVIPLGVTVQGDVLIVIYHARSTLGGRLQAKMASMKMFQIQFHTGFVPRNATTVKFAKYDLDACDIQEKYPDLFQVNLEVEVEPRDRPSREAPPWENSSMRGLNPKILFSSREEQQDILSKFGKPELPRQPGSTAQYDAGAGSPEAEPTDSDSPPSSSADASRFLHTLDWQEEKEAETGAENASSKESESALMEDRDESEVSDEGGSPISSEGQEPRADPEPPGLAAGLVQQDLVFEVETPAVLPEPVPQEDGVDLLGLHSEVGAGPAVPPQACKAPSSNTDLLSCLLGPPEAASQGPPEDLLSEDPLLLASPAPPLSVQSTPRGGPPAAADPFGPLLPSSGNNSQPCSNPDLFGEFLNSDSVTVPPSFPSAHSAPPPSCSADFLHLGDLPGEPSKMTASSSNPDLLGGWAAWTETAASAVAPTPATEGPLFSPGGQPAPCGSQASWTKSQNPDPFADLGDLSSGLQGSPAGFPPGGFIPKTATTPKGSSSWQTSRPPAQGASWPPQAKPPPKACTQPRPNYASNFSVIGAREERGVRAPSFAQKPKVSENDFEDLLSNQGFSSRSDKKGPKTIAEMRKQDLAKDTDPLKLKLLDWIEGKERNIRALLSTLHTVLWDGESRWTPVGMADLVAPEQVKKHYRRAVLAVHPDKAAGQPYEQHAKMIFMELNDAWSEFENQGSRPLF

[6] = target: T3, Muscle, skeletal receptor tyrosine-protein kinase (Homo sapiens) (UniProt O15146); test: Selectivity interaction (Upstate Kinase Profiler service (Millipore)) EUB0000056c MUSK; conditions: at 1 µM
T3 sequence (whole entry): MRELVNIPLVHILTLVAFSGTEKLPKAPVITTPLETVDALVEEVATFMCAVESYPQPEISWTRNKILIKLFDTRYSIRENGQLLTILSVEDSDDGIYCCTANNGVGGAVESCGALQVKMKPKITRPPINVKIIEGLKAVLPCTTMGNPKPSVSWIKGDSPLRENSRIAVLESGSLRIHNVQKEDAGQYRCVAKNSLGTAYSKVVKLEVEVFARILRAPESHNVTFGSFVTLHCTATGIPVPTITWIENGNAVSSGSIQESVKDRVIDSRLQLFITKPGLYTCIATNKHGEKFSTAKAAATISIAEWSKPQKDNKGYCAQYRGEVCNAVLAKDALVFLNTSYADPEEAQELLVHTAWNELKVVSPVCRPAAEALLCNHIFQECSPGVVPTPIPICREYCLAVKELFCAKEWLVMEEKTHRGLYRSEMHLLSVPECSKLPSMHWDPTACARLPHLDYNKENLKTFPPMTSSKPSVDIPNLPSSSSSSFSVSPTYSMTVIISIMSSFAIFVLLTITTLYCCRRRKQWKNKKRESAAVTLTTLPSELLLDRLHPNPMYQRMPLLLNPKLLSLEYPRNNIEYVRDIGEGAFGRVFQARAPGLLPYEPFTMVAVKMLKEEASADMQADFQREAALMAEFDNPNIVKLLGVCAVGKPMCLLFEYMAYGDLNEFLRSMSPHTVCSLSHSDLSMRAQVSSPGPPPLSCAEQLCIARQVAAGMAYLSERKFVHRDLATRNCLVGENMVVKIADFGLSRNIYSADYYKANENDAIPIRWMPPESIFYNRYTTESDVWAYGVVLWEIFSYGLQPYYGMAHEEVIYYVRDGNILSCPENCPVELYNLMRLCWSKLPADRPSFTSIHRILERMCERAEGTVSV

Tyrosine-protein kinase FRK (Homo sapiens), sequence (P42685 whole entry): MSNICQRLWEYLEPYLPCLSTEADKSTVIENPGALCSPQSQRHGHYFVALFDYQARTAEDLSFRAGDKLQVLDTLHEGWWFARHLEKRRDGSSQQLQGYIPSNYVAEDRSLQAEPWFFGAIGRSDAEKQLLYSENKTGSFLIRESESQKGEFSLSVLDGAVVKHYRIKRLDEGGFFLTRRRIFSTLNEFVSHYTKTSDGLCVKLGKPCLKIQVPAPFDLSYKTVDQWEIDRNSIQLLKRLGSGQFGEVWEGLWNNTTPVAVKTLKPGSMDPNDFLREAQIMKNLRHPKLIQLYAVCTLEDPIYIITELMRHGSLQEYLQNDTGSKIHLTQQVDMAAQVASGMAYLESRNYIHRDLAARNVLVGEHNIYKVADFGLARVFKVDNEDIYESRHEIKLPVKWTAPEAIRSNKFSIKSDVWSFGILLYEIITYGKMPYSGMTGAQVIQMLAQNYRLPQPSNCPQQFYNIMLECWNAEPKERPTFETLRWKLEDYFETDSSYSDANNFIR

## COc1cc(Nc2nc(C)cc(-c3cnn4nc(OC)ccc34)n2)cc(C(F)(F)F)c1
[1]
  % of control: 100%
[2]
  % of control: 89%

## CC[C@@H]1[C@H](F)C(=O)N[C@@H]1COc1nccc2cc(C(N)=O)c(OC)cc12 [ZIMLOVISERTIB]
[3]
  % of inhibition: -0.438%

## CCC(=O)N1CCN(c2ccc(-n3c(=O)ccc4cnc5ccc(-c6cnc7ccccc7c6)cc5c43)cc2C(F)(F)F)CC1
[4]
  % of control: 100%

## N#Cc1cccc(-c2c[nH]c3ncnc(N4CCOCC4)c23)c1
[5]
  % of control: 100%

## Cc1ccc(-c2ccc3c(ccc4sc5c(c43)NC[C@@H](C)NC5=O)n2)cn1
[6]
  % of inhibition: -7%

— ChEMBL document CHEMBL5465560, “Selectivity Literature for EUbOPEN Chemogenomic Library” (2024)
